Consider 13 compounds from ChEMBL document CHEMBL1155278, “3,4-Diaryl-isoxazoles and -imidazoles as potent dual inhibitors of p38alpha mitogen activated protein kinase and casein kinase 1delta” (J Med Chem, 2009).

Assay [1] addresses T1, Mitogen-activated protein kinase 14 (Homo sapiens, UniProt Q16539). Description: Inhibition of p38alpha by Cherenkov counting.
The target in assay [2] is T2, Casein kinase I isoform delta (Homo sapiens, UniProt P48730). The assay is described as follows: Inhibition of recombinant CK1delta kinase domain by Cherenkov counting.
Target sequence in this assay (P48730 whole entry, the tested form may be a part, canonical isoform): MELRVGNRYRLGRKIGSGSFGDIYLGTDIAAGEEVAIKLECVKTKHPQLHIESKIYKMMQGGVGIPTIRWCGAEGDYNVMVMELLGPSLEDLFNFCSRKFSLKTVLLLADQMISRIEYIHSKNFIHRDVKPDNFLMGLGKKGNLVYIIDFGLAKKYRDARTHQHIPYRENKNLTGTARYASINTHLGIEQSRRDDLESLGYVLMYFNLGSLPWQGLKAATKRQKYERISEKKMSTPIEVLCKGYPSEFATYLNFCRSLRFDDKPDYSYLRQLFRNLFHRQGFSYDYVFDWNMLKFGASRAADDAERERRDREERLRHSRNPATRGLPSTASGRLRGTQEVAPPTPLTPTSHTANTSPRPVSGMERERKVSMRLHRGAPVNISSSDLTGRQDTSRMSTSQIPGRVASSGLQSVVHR
The target of assay [3] is T3, Casein kinase I isoform delta (Rattus norvegicus, UniProt Q06486). Description: Inhibition of GST-fused rat CK1delta by Cherenkov counting in presence of 20 uM ATP.
In assay [4] the target is T2, Casein kinase I isoform delta. Description: Inhibition of human CK1delta.
Target sequence in this assay (P48730 whole entry, the tested form may be a part, canonical isoform): as above
For assay [5] the target is unchanged. The assay is described as follows: Inhibition of GST-fused human full length CK1delta expressed in Escherichia coli at 1 uM.
Target sequence in this assay (P48730 whole entry, looked up, the tested form may be a part, canonical isoform): as the sequence (P48730 whole entry, the tested form may be a part, canonical isoform) above
The target in assay [6] is T3, Casein kinase I isoform delta.
In assay [7] the target is T1, Mitogen-activated protein kinase 14. The note with it: 10 uM.
A short description of assay [8]: Cell cycle arrest in human AC1-M88 cells assessed as accumulation at subG1 phase at 3.32 uM after 48 hrs by propidium iodide staining-based FACS analysis. Format: functional. A general note: In flow cytometry, cells or beads pass a laser one at a time.
A short description of assay [9]: Cell cycle arrest in human AC1-M88 cells assessed as accumulation at G1 phase at 3.32 uM after 48 hrs by propidium iodide staining-based FACS analysis. Format: functional.
The nature of assay [10]: Cell cycle arrest in human AC1-M88 cells assessed as accumulation at S phase at 3.32 uM after 48 hrs by propidium iodide staining-based FACS analysis. Format: functional.
Assay [11] in a line: Cell cycle arrest in human AC1-M88 cells assessed as accumulation at G2 phase at 3.32 uM after 48 hrs by propidium iodide staining-based FACS analysis. Format: functional.
Assay [12] deals with T2, Casein kinase I isoform delta. The assay is described as follows: Inhibition of GST-fused human full length CK1delta expressed in Escherichia coli at 25 uM.
Target sequence in this assay (P48730 whole entry, looked up, the tested form may be a part, canonical isoform): as the sequence (P48730 whole entry, the tested form may be a part, canonical isoform) above
In assay [13] the target is Casein kinase I isoform delta (Oryctolagus cuniculus, UniProt P81123). The assay is described as follows: Inhibition of rabbit skeletal muscle CK1delta by liquid scintillation counting.
Casein kinase I isoform delta (Oryctolagus cuniculus, UniProt P81123), sequence (P81123 whole entry, canonical isoform): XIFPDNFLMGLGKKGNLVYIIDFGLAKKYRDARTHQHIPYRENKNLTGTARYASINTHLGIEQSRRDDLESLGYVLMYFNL

T1 sequence (Q16539 whole entry, the tested form may be a part, canonical isoform): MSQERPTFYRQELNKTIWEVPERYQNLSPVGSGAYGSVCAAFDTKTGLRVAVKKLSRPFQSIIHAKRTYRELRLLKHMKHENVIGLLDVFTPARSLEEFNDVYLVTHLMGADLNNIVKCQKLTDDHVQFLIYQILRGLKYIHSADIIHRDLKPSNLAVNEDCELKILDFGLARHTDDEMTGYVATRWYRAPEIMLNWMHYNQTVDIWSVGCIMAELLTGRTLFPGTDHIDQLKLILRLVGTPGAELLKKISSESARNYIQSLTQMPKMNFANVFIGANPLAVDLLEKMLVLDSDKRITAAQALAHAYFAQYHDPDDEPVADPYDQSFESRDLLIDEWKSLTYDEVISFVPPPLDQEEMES
T3 sequence (Q06486 whole entry, the tested form may be a part, canonical isoform): as the sequence (P48730 whole entry, the tested form may be a part, canonical isoform) above, with I381V counted along it

What is called IC50 is the concentration needed to halve the response being measured. Regarding `CC(Oc1ccccc1)C(=O)Nc1cc(-c2c(-c3ccc(F)cc3)noc2C(C)C)ccn1` (racemic), the half-inhibitory concentration (IC50) in assay [1] is 890 nM; in [2] it was 820 nM; in assay [3], 340 nM.

As to `CC(C)c1onc(-c2ccc(F)cc2)c1-c1ccnc(NC(=O)Cc2ccc(F)cc2)c1`, the figures for the IC50 in assay [1], in assay [2] and in assay [3] were 1560 nM, 110 nM and 90 nM, respectively.

For the compound `CC(=O)Nc1cc(-c2c(-c3ccc(F)cc3)noc2C(C)C)ccn1`, the half-inhibitory concentration (IC50) in [1] was found to be 300 nM; in assay [2], 700 nM; in assay [3], 330 nM.

For `COc1cc(OC)c(C=C2C(O)=Nc3ccccc32)c(OC)c1` [IC261], the half-inhibitory concentration (IC50) in assay [4] is 1000 nM.

`CCC(C)Nc1cc(-c2c(-c3ccc(F)cc3)noc2C(C)C)ccn1` (centres undefined) yielded a concentration for half-maximal inhibition (IC50) in [1] of 30 nM.

Regarding `CC(C)c1onc(-c2ccc(F)cc2)c1-c1ccnc(N[C@H](C)c2ccccc2)c1`, in [1], the IC50 is 450 nM.

By inhibition is commonly meant the share of the control response that was lost under treatment. In the case of `Oc1ccc(-c2nc(-c3ccc(F)cc3)c(-c3ccncc3)[nH]2)cc1`, in assay [5], the inhibition was 79%.

On to `NC(=O)c1ccc(-c2nc(-c3ccc4c(c3)OCCO4)c(-c3ccccn3)[nH]2)cc1`, for which half-maximal inhibition in assay [6] (IC50) was put at 300 nM. Further, the inhibition in [7] came out at 62%.

As to `COc1ccc(/C=C/C(=O)Nc2cc(-c3c(-c4ccc(F)cc4)noc3C(C)C)ccn2)c(OC)c1`, the IC50 worked out at 2520 nM in assay [1], 33 nM in assay [2] and 47 nM in assay [3]. For the same compound, the Activity is 34.4% in assay [8], 33% in assay [9], 14.8% in [10] and 14.8% in assay [11].

On to `CC(C)c1onc(-c2ccc(F)cc2)c1-c1ccnc(N[C@@H](C)c2ccccc2)c1`, for which the half-maximal inhibitory concentration (IC50) amounted to 6 nM in [1] and 1600 nM in assay [2].

For the compound `CC(C)c1onc(-c2ccc(F)cc2)c1-c1ccnc(NC2CCOCC2)c1`, the IC50 in assay [1] was determined as 60 nM; in [2], 2500 nM.

In turn, `NCCNS(=O)(=O)c1ccc(Cl)c2ccncc12` gave an inhibition in assay [12] of 88%. In assay [13], this compound displayed a concentration for half-maximal inhibition (IC50) of 10 µM.

For the compound `C[S+]([O-])c1ccc(-c2nc(-c3ccc(F)cc3)c(-c3ccncc3)[nH]2)cc1` (centres undefined), the inhibition in assay [5] came out at 92%.
